We go through five substances from patent publication US20240148917A1, “PNA PROBES FOR PRETARGETED IMAGING AND THERAPY” (Zytox Therapeutics AB, priority 2020, published 2024).

Values joined by “and” are separate entries in the source; they are usually repeats but may differ in a detail not shown here. Equal entries are not always repeated. {DOTA-AEEA-S-S} = N-terminal DOTA chelator joined through an AEEA linker and two serines; {EEY-NH2} = C-terminal Glu-Glu-Tyr amide

The test system of one data set is SKOV3 xenografts. Put plainly: Estimated dosimetry: areas under time-activity plots for kidney and tumor. Format: in vivo, BALB/c nu/nu mice. Conditions: non-decay corrected data, 4 and 144 h, pretargeted. As to the method: To estimate a ratio of absorbed doses in tumor and kidneys, cumulated activity in kidney and tumor were assessed. The estimation was based on a clinically validated two time point approach (Freedman 2020). The biodistribution data were non-decay corrected and areas under time-activity plot was calculated using GraphPad Prism software. The assumptions were that the main absorbed dose will be due to beta-particles, as cross-doses would be negligible, and the absorbed fraction would be equal to 1.

Another data set deals with ZHER2:342-SR-HP15. Put plainly: SPR hybridization of complementary PNA probes to immobilized ZHER2:342-SR-HP15. Conditions: for affinity to ZHER2:342-SR-HP15 relative to HP16: SPR, kd too slow to determine; for kd: dissociation 10 000 s. Format: binding. As to the method:
The kinetic parameters for hybridization of the PNA probes were analyzed using surface plasmon resonance (SPR) on a Biacore™ 8K instrument (GE Healthcare). Dextran chips Series S Sensor CM5 (GE Healthcare), were functionalized with ZHER2:342-SR-HP15 on four surfaces to 385, 194, 185 and 353 resonance units (RU) using standard amine coupling procedures. A reference surface on each chip was subjected to activation followed by deactivation. The complementary PNA probes HP16, HP17, HP18 and HP19 were injected at 5 concentrations; 22.6, 45.3, 90.6, 181.25 and 362.5 nM using a single cycle injection. Association for each concentration was allowed for 300 s, followed by the next injection and association phase. After injection of the final concentration, dissociation was allowed for 10 000 s (2 h 47 min) before regeneration with 10 mM HCl for 30 s followed by 15 mM NaOH for 30 s. All runs were performed in PBST (0.05% Tween-20) pH 7.4 using a flow rate of […] at 25° C. Kinetic parameters were calculated using 1:1 binding model in Biacore Insight Evaluation software.

A further data set has as its system HP15. Put plainly: Melting temperature of PNA hybridization complexes with HP15 (UV absorbance at 260 nm). The class given is physicochemical. Conditions: duplex with HP15, monitored at 260 nm. On the procedure: Melting temperatures for HP15:HP16, HP15:HP17 and HP15:HP18 were determined by monitoring UV absorbance at 260 nm (Chirascan™, Applied Photophysics) at a temperature range from 20 to 95° C., using a temperature change of 1° C./min. The PNA complexes were heated to 80° C. for 5 min and were then allowed to hybridize at room temperature for 5 min prior to UV monitoring at room temperature for 5 min. CD spectra were collected before and after determination of thermal denaturation. The melting temperature for the HP15:HP19 complex was determined using a Varian Cary 50 Bio UV-visual spectrophotometer equipped with a single-cell Peltier thermostat controlled cuvette holder. The temperature in the cell was adjusted at a speed of 0.5° C./min between 20 to 80° C., and measurements were taken at 260 nm after a 60 s equilibration at each temperature point.

Data set [1] in a line: In vitro stability of 177Lu-labeled probes (EDTA challenge, PBS control). Conditions: 177Lu-labeled probe, 500-fold molar excess of EDTA. The class given is physicochemical. As to the method: To evaluate stability, a fraction of the freshly radiolabeled conjugate (0.4 μg) was incubated with 500-fold molar excess of EDTA for 60 min at 37° C. Incubation was also performed in PBS as a control. The test was run in triplicates.

The mark [2] stands for this setting: binding to immobilized ZHER2:342-SR-HP15, SPR.

By Tm is commonly meant the temperature at the midpoint of the melting transition. The Kd is the constant that tells how readily two partners part at equilibrium. The low end stands for higher affinity, the high end for lower affinity.

As to “DOTA-AEEA-S-S-g-a-c-t-a-c-a-t-c-c-a-g-a-c-t-E-E-Y-NH2 (GACTACATCCAGACT; all peptide nucleic acid (PNA), 5' {DOTA-AEEA-S-S}, 3' {EEY-NH2}) [HP2, first-generation secondary PNA probe (Westerlund et al, 2015), reference compound]”, the “Tumor-to-kidney ratio (areas under time-activity plots)” value (from here on “Tumor-to-kidney ratio”) with SKOV3 xenografts is 2.0.

“DOTA-AEEA-S-S-a-t-c-a-a-c-a-c-c-a-g-g-E-E-Y-NH2 (ATCAACACCAGG; chemistry not fully specified) [HP17, secondary probe, 12-mer PNA]”: the “affinity to ZHER2:342-SR-HP15 relative to HP16” value in the data set on ZHER2:342-SR-HP15 is recorded as “estimated to be higher”. Moreover, in the data set with ZHER2:342-SR-HP15 (setting [2]), the ka was determined as 43000 M⁻¹ s⁻¹ and the kd entry was “too slow to be determined”. Also, the Tm in the data set with HP15 was 75 °C. Also, the “Tumor-to-kidney ratio” value with SKOV3 xenografts is 2.8. For the same substance, in data set [1], the “Stability (×500 EDTA), 37° C., 1 h” value is 100 ± 0.

In the data set on ZHER2:342-SR-HP15 (setting [2]), “DOTA-AEEA-S-S-a-c-c-a-g-g-E-E-Y-NH2 [HP19]” returned a ka of 2.1e+07 M⁻¹ s⁻¹ and a kd of 0.072 s⁻¹. In the data set on ZHER2:342-SR-HP15 (interaction with HP15, SPR), this substance yielded a Kd of 3.4 nM. In the data set on HP15, the Tm was determined as 55 °C.

In the data set on ZHER2:342-SR-HP15 (setting [2]), “DOTA-AEEA-S-S-a-a-c-a-c-c-a-g-g-E-E-Y-NH2 (AACACCAGG; chemistry not fully specified) [HP16, secondary probe, 9-mer PNA]” had a ka of 46000 M⁻¹ s⁻¹ and a kd of 1.2e-05 s⁻¹. Moreover, in the data set with ZHER2:342-SR-HP15 (binding to immobilized ZHER2:342-SR-HP15, SPR, 25° C., 1:1 model), the Kd was ~0.28 nM and 0.28 nM. Besides, the Tm in the data set with HP15 is 73 °C. Besides, the “Tumor-to-kidney ratio” value in the data set with SKOV3 xenografts is on record as 3.8. The “Stability (×500 EDTA), 37° C., 1 h” value in data set [1] worked out at 100 ± 0.

Regarding “DOTA-AEEA-S-S-a-t-c-a-t-c-a-a-c-a-c-c-a-g-g-E-E-Y-NH2 (ATCATCAACACCAGG; all peptide nucleic acid (PNA), 5' {DOTA-AEEA-S-S}, 3' {EEY-NH2}) [HP18, secondary probe, 15-mer PNA]”, the “affinity to ZHER2:342-SR-HP15 relative to HP16” value in the data set on ZHER2:342-SR-HP15 is on record as “estimated to be higher”. In the data set on ZHER2:342-SR-HP15 (setting [2]), the ka amounted to 57000 M⁻¹ s⁻¹ and the kd result is reported as “too slow to be determined”. Further, in the data set with HP15, the Tm is 87 °C. Moreover, the “Tumor-to-kidney ratio” value in the data set with SKOV3 xenografts was 2.0. Moreover, the “Stability (×500 EDTA), 37° C., 1 h” value in data set [1] was determined as 100 ± 0.
